Measurements reported in US20110269718A1, “PHARMACEUTICAL COMPOSITION CONTAINING MALATHION AND VOLATILE CYCLIC SILICONE” (priority 2010, published 2011).

Key:
[1] = Stability of malathion compositions, degradation measured by HPLC; format: physicochemical
Protocol: The inventors measured malathion degradation by HPLC. The HPLC method was reverse-phase HPLC with UV detection (210 nm). The column used is an xTERRA C18 with a water/acetonitrile gradient and a flow rate of 0.6 ml/min. The malathion compositions tested comprise either malathion on its own, or a composition of 50% malathion and 50% isopropanol, or a composition of 50% malathion and 50% polydimethylcyclosiloxane, or a composition of 33% malathion with 33% isopropanol and 33% polydimethylcyclosiloxane. These compositions also contain excipients such as povidone as viscosity agent.
The stability of these compositions was assessed for 114 hours at 60° Celsius (Table 1).

lice = assay: Pediculicidal activity of volatile silicone oil itself (stated, no method); format: in vivo, Pediculus humanus var capitis
nits = assay: Nit-killing activity of volatile silicone oil itself (stated, no method); format: in vivo, Pediculus humanus var capitis

| SMILES | Malathion content (%) ([1]; T0) | Malathion content (%) ([1]; T 72 hrs 60° C.) | Malathion loss (%) ([1]; T 72 hrs 60° C.) | Malathion content (%) ([1]; T 114 hrs 60° C.) | Malathion loss (%) ([1]; T 114 hrs 60° C.) | pediculicidal activity (lice) [%] | nit-killing activity (nits) [%] |
| --- | --- | --- | --- | --- | --- | --- | --- |
| CCOC(=O)CC(SP(=S)(OC)OC)C(=O)OCC (stereo not shown) [Malathion alone, malathion] | 100.90 | 100.3 | (−0.1) % | 91 | (−9.8) % | – | – |
| C[Si]1(C)O[Si](C)(C)O[Si](C)(C)O[Si](C)(C)O[Si](C)(C)O1 [decamethylcyclopentasiloxane] | – | – | – | – | – | 100 | ~70 |
